# Test results taken from patent US9808423B2, “Preparation of suspension aerosol formulations” (Generics [UK] Limited, priority 2004, dated 2017).
# Assay: Sympatec laser diffraction particle size of micronized medicament
# Assay type: physicochemical
# Conditions: Sympatec laser diffraction instrument; micronized starting material of Example 10
# Method: A stock solution of 16.0 g of ethanol USP and 0.0053 g of oleic acid was prepared. Into each of three 14-mL fluoropolymer (FEP-PES) coated aluminum canisters was added 7 mg of micronized salmeterol xinafoate, having a volume mean diameter (X50) of 1.6 μm as measured using a Sympatec laser diffraction instrument. To each canister was then added 10.0 g of HFA-134a, at about −70° C., and approximately 0.20 g of the stock solution. A 50-μL metering valve was crimp sealed to each canister. Each canister was sonicated for 1.5 minutes to promote mixing of the formulation and deaggregation of the medicament particles.
structure (smiles),measurement,value
"OCc1cc(C(O)CNCCCCCCOCCCCc2ccccc2)ccc1O (stereo not shown) [micronized salmeterol xinafoate, salmeterol xinafoate]",volume mean diameter (X50),1.6 μm
